The assay addresses T1, FGFR2 (Homo sapiens, UniProt P21802).
T1 construct: endogenous amplified FGFR2 in NCI-H716 cells
The experiment in a line: FGFR2 Y653/[…] phosphorylation in NCI-H716 cells, western blot quantitation. It is filed as cell-based.

Structures are written as SMILES.

T1 sequence (P21802 22-821): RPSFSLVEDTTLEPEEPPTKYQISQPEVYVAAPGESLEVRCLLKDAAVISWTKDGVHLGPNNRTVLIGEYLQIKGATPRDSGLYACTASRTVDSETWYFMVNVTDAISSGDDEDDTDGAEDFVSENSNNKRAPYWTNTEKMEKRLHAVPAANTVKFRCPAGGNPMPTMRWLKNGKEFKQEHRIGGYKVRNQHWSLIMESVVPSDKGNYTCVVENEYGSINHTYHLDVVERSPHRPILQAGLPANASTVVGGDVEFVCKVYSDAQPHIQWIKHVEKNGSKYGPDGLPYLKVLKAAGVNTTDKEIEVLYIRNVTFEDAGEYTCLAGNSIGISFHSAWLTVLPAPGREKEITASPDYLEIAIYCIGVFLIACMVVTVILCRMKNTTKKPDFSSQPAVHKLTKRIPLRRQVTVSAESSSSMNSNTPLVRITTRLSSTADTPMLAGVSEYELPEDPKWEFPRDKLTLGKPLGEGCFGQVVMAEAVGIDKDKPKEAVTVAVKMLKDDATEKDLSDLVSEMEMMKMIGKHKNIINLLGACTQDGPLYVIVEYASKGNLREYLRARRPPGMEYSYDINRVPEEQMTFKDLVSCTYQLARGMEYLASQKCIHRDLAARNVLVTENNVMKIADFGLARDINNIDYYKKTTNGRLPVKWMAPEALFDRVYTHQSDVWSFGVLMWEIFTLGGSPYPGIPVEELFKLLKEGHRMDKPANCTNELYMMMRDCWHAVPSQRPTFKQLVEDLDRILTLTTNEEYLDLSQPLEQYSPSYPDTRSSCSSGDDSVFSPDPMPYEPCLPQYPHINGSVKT

In the case of `CN(C[C@@H]1COCCO1)S(=O)(=O)Nc1ccc2ccc3ncc(-c4cnn(C)c4)cc3c(=O)c2c1` [MK2461], the IC50 stood at 165 nM.

(Values after publication PMC4072591, “FGFR2 Is Amplified in the NCI-H716 Colorectal Cancer Cell Line and Is Required for Growth and Survival” (PLoS ONE, 2014).)
